# Organism: Rattus norvegicus
# Experiment: DrugMatrix - Regimen: Daily Repeat
# Assay type: toxicity, organism-based, Sprague-Dawley
# Design: regimen Daily Repeat, gender Male, age 6-8 weeks
# Conditions: in vivo, po, route oral GAVAGE, vehicle 100 % WATER; for ABSOLUTE BASOPHIL / ABSOLUTE EOSINOPHIL / ABSOLUTE LYMPHOCYTE / ABSOLUTE MONOCYTE / ABSOLUTE SEGMENTED NEUTROPHIL / BASOPHIL / EOSINOPHIL / ERYTHROCYTE COUNT / HEMATOCRIT / HEMOGLOBIN / LEUKOCYTE COUNT / LYMPHOCYTE / MEAN CORPUSCULAR HEMOGLOBIN / MEAN CORPUSCULAR HEMOGLOBIN CONCENTRATION / MEAN CORPUSCULAR VOLUME / MONOCYTE / NEUTROPHIL / NUCLEATED RED BLOOD CELLS / PLATELET COUNT: tissue Blood; for ALANINE AMINOTRANSFERASE / ALBUMIN / ALKALINE PHOSPHATASE / ASPARTATE AMINOTRANSFERASE / BLOOD UREA NITROGEN / CARBON DIOXIDE / CHLORIDE / CHOLESTEROL / CREATINE PHOSPHOKINASE / CREATININE / GLUCOSE / LACTATE DEHYDROGENASE / LIPASE / PHOSPHORUS / POTASSIUM / SODIUM / TOTAL BILIRUBIN / TOTAL PROTEIN / URIC ACID: tissue Plasma
# [1] = 20 mg/kg, 120 h, dose level Low, time 5 day
# [2] = 160 mg/kg, 72 h, dose level High, time 3 day
# [3] = 160 mg/kg, 120 h, dose level High, time 5 day
compound,measurement,setting,value
CN(C)CCC=C1c2ccccc2CCc2ccccc21 [AMITRIPTYLINE],ABSOLUTE BASOPHIL,[1],0 CELLS/uL
same,ABSOLUTE EOSINOPHIL,[1],0 CELLS/uL
same,ABSOLUTE LYMPHOCYTE,[1],11980.67 CELLS/uL
same,ABSOLUTE MONOCYTE,[1],40.67 CELLS/uL
same,ABSOLUTE SEGMENTED NEUTROPHIL,[1],1045.33 CELLS/uL
same,BASOPHIL,[1],0%
same,EOSINOPHIL,[1],0%
same,ERYTHROCYTE COUNT,[1],5.76 x10E6/uL
same,HEMATOCRIT,[1],35.93%
same,HEMOGLOBIN,[1],14.33 G/DL
same,LEUKOCYTE COUNT,[1],13.07 x10E3/uL
same,LYMPHOCYTE,[1],91.33%
same,MEAN CORPUSCULAR HEMOGLOBIN,[1],24.93 pg
same,MEAN CORPUSCULAR HEMOGLOBIN CONCENTRATION,[1],39.9 G/DL
same,MEAN CORPUSCULAR VOLUME,[1],62.43 fL
same,MONOCYTE,[1],0.33%
same,NEUTROPHIL,[1],8.33%
same,NUCLEATED RED BLOOD CELLS,[1],0.33 /100WBC
same,PLATELET COUNT,[1],1316.67 x10E3/uL
same,ALANINE AMINOTRANSFERASE,[1],43.67 u/L
same,ALBUMIN,[1],4 G/DL
same,ALKALINE PHOSPHATASE,[1],394 u/L
same,ASPARTATE AMINOTRANSFERASE,[1],89.67 u/L
same,BLOOD UREA NITROGEN,[1],15.33 mg/dL
same,CARBON DIOXIDE,[1],30 mmol/L
same,CHLORIDE,[1],100.33 MEQ/L
same,CHOLESTEROL,[1],66.67 mg/dL
same,CREATINE PHOSPHOKINASE,[1],486 u/L
same,CREATININE,[1],0.18 mg/dL
same,GLUCOSE,[1],145.33 mg/dL
same,LACTATE DEHYDROGENASE,[1],605.67 u/L
same,LIPASE,[1],11 u/L
same,PHOSPHORUS,[1],12.43 mg/dL
same,POTASSIUM,[1],6.68 MEQ/L
same,SODIUM,[1],141.6 MEQ/L
same,TOTAL BILIRUBIN,[1],0.2 mg/dL
same,TOTAL PROTEIN,[1],5.97 G/DL
same,URIC ACID,[1],1.87 mg/dL
same,ABSOLUTE BASOPHIL,[2],0 CELLS/uL
same,ABSOLUTE EOSINOPHIL,[2],85.33 CELLS/uL
same,ABSOLUTE LYMPHOCYTE,[2],16571 CELLS/uL
same,ABSOLUTE MONOCYTE,[2],212.67 CELLS/uL
same,ABSOLUTE SEGMENTED NEUTROPHIL,[2],697.67 CELLS/uL
same,BASOPHIL,[2],0%
same,EOSINOPHIL,[2],0.67%
same,ERYTHROCYTE COUNT,[2],5.93 x10E6/uL
same,HEMATOCRIT,[2],38.63%
same,HEMOGLOBIN,[2],15.33 G/DL
same,LEUKOCYTE COUNT,[2],17.57 x10E3/uL
same,LYMPHOCYTE,[2],94%
same,MEAN CORPUSCULAR HEMOGLOBIN,[2],25.83 pg
same,MEAN CORPUSCULAR HEMOGLOBIN CONCENTRATION,[2],39.7 G/DL
same,MEAN CORPUSCULAR VOLUME,[2],65.13 fL
same,MONOCYTE,[2],1%
same,NEUTROPHIL,[2],4.33%
same,NUCLEATED RED BLOOD CELLS,[2],0 /100WBC
same,PLATELET COUNT,[2],1403.33 x10E3/uL
same,ALANINE AMINOTRANSFERASE,[2],60 u/L
same,ALBUMIN,[2],4.1 G/DL
same,ALKALINE PHOSPHATASE,[2],422 u/L
same,ASPARTATE AMINOTRANSFERASE,[2],80.33 u/L
same,BLOOD UREA NITROGEN,[2],14 mg/dL
same,CARBON DIOXIDE,[2],34 mmol/L
same,CHLORIDE,[2],102 MEQ/L
same,CHOLESTEROL,[2],83 mg/dL
same,CREATINE PHOSPHOKINASE,[2],464 u/L
same,CREATININE,[2],0.15 mg/dL
same,GLUCOSE,[2],151.67 mg/dL
same,LACTATE DEHYDROGENASE,[2],162.67 u/L
same,LIPASE,[2],10.33 u/L
same,PHOSPHORUS,[2],11.3 mg/dL
same,POTASSIUM,[2],5.61 MEQ/L
same,SODIUM,[2],145.53 MEQ/L
same,TOTAL BILIRUBIN,[2],0.13 mg/dL
same,TOTAL PROTEIN,[2],5.93 G/DL
same,URIC ACID,[2],1.57 mg/dL
same,ABSOLUTE BASOPHIL,[3],0 CELLS/uL
same,ABSOLUTE EOSINOPHIL,[3],42.33 CELLS/uL
same,ABSOLUTE LYMPHOCYTE,[3],10052.67 CELLS/uL
same,ABSOLUTE MONOCYTE,[3],70 CELLS/uL
same,ABSOLUTE SEGMENTED NEUTROPHIL,[3],435 CELLS/uL
same,BASOPHIL,[3],0%
same,EOSINOPHIL,[3],0.33%
same,ERYTHROCYTE COUNT,[3],5.82 x10E6/uL
same,HEMATOCRIT,[3],36.27%
same,HEMOGLOBIN,[3],14.2 G/DL
same,LEUKOCYTE COUNT,[3],10.6 x10E3/uL
same,LYMPHOCYTE,[3],94.67%
same,MEAN CORPUSCULAR HEMOGLOBIN,[3],24.37 pg
same,MEAN CORPUSCULAR HEMOGLOBIN CONCENTRATION,[3],39.17 G/DL
same,MEAN CORPUSCULAR VOLUME,[3],62.27 fL
same,MONOCYTE,[3],0.67%
same,NEUTROPHIL,[3],4.33%
same,NUCLEATED RED BLOOD CELLS,[3],0.33 /100WBC
same,PLATELET COUNT,[3],1249.67 x10E3/uL
same,ALANINE AMINOTRANSFERASE,[3],49.67 u/L
same,ALBUMIN,[3],4 G/DL
same,ALKALINE PHOSPHATASE,[3],363.67 u/L
same,ASPARTATE AMINOTRANSFERASE,[3],96.67 u/L
same,BLOOD UREA NITROGEN,[3],14.67 mg/dL
same,CARBON DIOXIDE,[3],30.33 mmol/L
same,CHLORIDE,[3],100.67 MEQ/L
same,CHOLESTEROL,[3],72.67 mg/dL
same,CREATINE PHOSPHOKINASE,[3],1225 u/L
same,CREATININE,[3],0.16 mg/dL
same,GLUCOSE,[3],188 mg/dL
same,LACTATE DEHYDROGENASE,[3],246.67 u/L
same,LIPASE,[3],10.33 u/L
same,PHOSPHORUS,[3],12.93 mg/dL
same,POTASSIUM,[3],5.4 MEQ/L
same,SODIUM,[3],143.4 MEQ/L
same,TOTAL BILIRUBIN,[3],0.17 mg/dL
same,TOTAL PROTEIN,[3],6.23 G/DL
same,URIC ACID,[3],1.83 mg/dL

# Source: ChEMBL document CHEMBL3885881, “DrugMatrix”
